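Briefly, cells in 96-well plates were exposed to five compound concentrations for 48 h, and endpoints were estimated by linear interpolation. The concentration for full growth arrest is given as TGI.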 Where a SMILES comes first, the peptide text is derived from it. [ ]: non-standard residue; d: D form. The star is where a group is joined. X28 = COC1=CC(=O)N(C(=O)[C@@H](O*)C(C)C)[C@H]1Cc1ccccc1; NMeL = CN[C@@H](CC(C)C)C(=O)O; Cbz = O=C(OCc1ccccc1)*
Experiments:
Assay in all cases: NCI anticancer screen, dose series, 48 h
A549 NSCLC = tested on: A549 NSCLC
SF-295 CNS = tested on: SF-295 CNS
NCI-H226 lung = tested on: NCI-H226 lung
SNB-19 CNS = tested on: SNB-19 CNS
COLO 205 colon = tested on: COLO 205 colon
SK-MEL-28 melanoma = tested on: SK-MEL-28 melanoma
786-0 renal = tested on: 786-0 renal
TK-10 renal = tested on: TK-10 renal
SW-620 colon = tested on: SW-620 colon
ACHN renal = tested on: ACHN renal

Row | Structure (SMILES) | TGI (A549 NSCLC) [µM] | TGI (SF-295 CNS) [µM] | TGI (NCI-H226 lung) [µM] | TGI (SNB-19 CNS) [µM] | TGI (COLO 205 colon) [µM] | TGI (SK-MEL-28 melanoma) [µM] | TGI (786-0 renal) [µM] | TGI (TK-10 renal) [µM] | TGI (SW-620 colon) [µM] | TGI (ACHN renal) [µM]
1 | Nc1nc(SCc2ccccc2[N+](=O)[O-])c2[nH]cnc2n1 | > 100 | > 100 | 97.5 | > 100 | > 71.7 | > 100 | > 100 | > 62.7 | > 100 | > 100
2 | Nc1ccc(S(=O)(=O)c2ccc(N=[N+]([O-])c3ccc(S(=O)(=O)c4ccc(N)cc4)cc3)cc2)cc1 | > 100 | > 100 | 92.2 | > 72.3 | > 100 | > 100 | 60.3 | > 88 | > 100 | > 100
3 | C[N+](C)(N)Cc1csc(-c2ccc(Cl)cc2)n1 | > 100 | > 100 | > 100 | > 100 | > 100 | > 100 | > 100 | > 100 | > 100 | > 100
4 | COC(=O)C1(Cc2ccc3c(c2)CCC3)Cc2cc3c(cc2C1=O)CCC3 (stereo not given) | > 46.4 | > 46.4 | > 46.4 | > 46.4 | 29.2 | > 46.4 | > 46.4 | > 46.4 | > 46.4 | > 46.4
5 | COC1=CC(=O)N(C(=O)[C@@H](OC(=O)[C@@H]2CCCN2C(=O)[C@@H]2CCCN2C(=O)[C@H](CC(C)C)N(C)C(=O)[C@@H](NC(=O)[C@@H](NC(=O)OCc2ccccc2)C(C)C)C(C)C)C(C)C)[C@H]1Cc1ccccc1 (Cbz-VV[NMeL]PP-X28) | > 100 | > 100 | > 100 | > 100 | > 100 | > 100 | > 100 | > 100 | > 100 | > 100
6 | COc1cc(C(=O)OC2CC(C)=CC[C@@]3(C)CC[C@](O)(C(C)C)C23)ccc1O (stereo not given in full) | 27.7 | 51.9 | 32.5 | 35.8 | 39 | 60.2 | 31.3 | 30.1 | 55.3 | 32.6
7 | Cc1ccc(C(=O)/C=C/N2CCN(c3cccc(C(F)(F)F)c3)CC2)cc1 | 53.6 | 34 | 38.9 | > 100 | 72 | 38.4 | 34 | 56.8 | 49.8 | 60.5
8 | CN(C)Cc1cc(C(=O)/C=C/c2c(F)cccc2Cl)cc(CN(C)C)c1O | 32.5 | 25.4 | 30.8 | 61.5 | 24.8 | 31.9 | 19.5 | 15.7 | 31.3 | 15.4
9 | O=C(O)C1Cc2ccccc2OC1=O (stereo not given) | > 100 | > 100 | > 100 | > 100 | > 100 | > 100 | > 100 | > 100 | > 100 | > 100
10 | CCCCCCCCC[C@@H]1C[C@@H]2CCC3C(C(=O)OCCCCNC(=O)OCc4ccccc4)=C(C)NC(=N1)N32 (stereo not given in full) | 23.3 | 11.2 | 11.6 | 29.4 | 2.97 | 13.5 | 3.2 | 17.7 | 14.2 | 12.2
11 | O=C(O)C1(CC(CCCN2CCCCC2)c2ccccc2)CCCC1 (stereo not given) | > 100 | > 100 | > 100 | > 100 | > 100 | > 100 | > 100 | > 100 | > 100 | > 100
12 | COc1cc(C2c3cc4c(cc3OC(N3CCOCC3)C2C)OCO4)cc(OC)c1OC (stereo not given) | > 69.2 | 10.4 | 11.2 | 18.7 | > 71.3 | > 100 | 28.6 | 63.9 | > 100 | 50.3
13 | CCOC(=O)c1[nH]n(-c2ccccc2)c(=O)c1C=NC(=S)C(N)=S | > 100 | > 100 | > 100 | > 100 | 68.5 | > 100 | 38.2 | > 100 | > 100 | 64.8
14 | OC(C1CCCC1=N/N=C1/CCCC1C(O)(C(F)(F)Cl)C(F)(F)Cl)(C(F)(F)Cl)C(F)(F)Cl (stereo not given) | > 10 | > 10 | > 10 | > 10 | > 10 | > 10 | > 10 | > 10 | > 10 | > 10
15 | CNc1nc(=O)c(C#N)c(-c2ccc(C)cc2)s1 | > 100 | > 100 | > 100 | > 100 | > 100 | > 100 | > 100 | > 100 | > 100 | > 100
16 | FC(F)(F)c1nc2cc(SSc3cc4nc(C(F)(F)F)[nH]c4cc3Cl)c(Cl)cc2[nH]1 | > 100 | > 100 | > 100 | > 100 | > 100 | > 100 | > 100 | > 100 | > 100 | > 100

— PubChem BioAssay (NCI)
